{"source": "patent US10183019B2", "about": "“Treatment of cancer with dihydropyrazino-pyrazines” (Signal Pharmaceuticals, LLC, priority 2013, dated 2019)", "key": {"[1]": {"test_system": "patient-derived GBM cell line 157", "assay": "Gliomasphere Cell Number Assay", "type": "cell-based", "conditions": "cell line 157, Primary, MGMT status −; 50% cell numbers vs DMSO control, Day 2 to Day 9; read-out: IC50 Cell Survival", "procedure": "(§1) Gliomasphere Cell Number Assay. Primary patient-derived GBM tumor samples were dissociated and plated under culture conditions that produce gliomaspheres (i.e. DMEM/F12 medium supplemented with B27, 20 ng/mL bFGF, 50 ng/mL EGF, penicillin/streptomycin, L-glutamine and 5 ug/mL heparin). Cells were plated at a density of 5000 cells/well and allowed to acclimate overnight at 37° C. The Dihydropyrazino-Pyrazine Compounds were added to the cultures on Day 2 and cells were kept in culture until Day 9. On Day 9, the cells were fixed with PFA/methanol and the next day assessed for cell number, using for example, SYTO-9 fluorescent DNA dye. Plates were read 48 h later with a laser scanning imager."}, "[2]": {"test_system": "patient-derived GBM cell line 206", "assay": "Gliomasphere Cell Number Assay", "type": "cell-based", "conditions": "cell line 206, Recurrent, MGMT Unkn/Highly Expressed; 50% cell numbers vs DMSO control, Day 2 to Day 9; read-out: IC50 Cell Survival", "procedure": "as §1"}, "[3]": {"test_system": "patient-derived GBM cell line 217", "assay": "Gliomasphere Cell Number Assay", "type": "cell-based", "conditions": "cell line 217, Primary; 50% cell numbers vs DMSO control, Day 2 to Day 9; read-out: IC50 Cell Survival", "procedure": "as §1"}, "[4]": {"test_system": "patient-derived GBM cell line 250", "assay": "Gliomasphere Cell Number Assay", "type": "cell-based", "conditions": "cell line 250, Recurrent, MGMT Unkn/Highly Expressed; 50% cell numbers vs DMSO control, Day 2 to Day 9; read-out: IC50 Cell Survival", "procedure": "as §1"}, "[5]": {"test_system": "patient-derived GBM cell line 254", "assay": "Gliomasphere Cell Number Assay", "type": "cell-based", "conditions": "cell line 254, Recurrent; 50% cell numbers vs DMSO control, Day 2 to Day 9; read-out: IC50 Cell Survival", "procedure": "as §1"}, "[6]": {"test_system": "patient-derived GBM cell line 277", "assay": "Gliomasphere Cell Number Assay", "type": "cell-based", "conditions": "cell line 277, Secondary/Recurrent; 50% cell numbers vs DMSO control, Day 2 to Day 9; read-out: IC50 Cell Survival", "procedure": "as §1"}, "[7]": {"test_system": "patient-derived GBM cell line 296", "assay": "Gliomasphere Cell Number Assay", "type": "cell-based", "conditions": "cell line 296, Recurrent, MGMT status −; 50% cell numbers vs DMSO control, Day 2 to Day 9; read-out: IC50 Cell Survival", "procedure": "as §1"}, "[8]": {"test_system": "patient-derived GBM cell line 336", "assay": "Gliomasphere Cell Number Assay", "type": "cell-based", "conditions": "cell line 336, Recurrent, MGMT status +; 50% cell numbers vs DMSO control, Day 2 to Day 9; read-out: IC50 Cell Survival", "procedure": "as §1"}, "[9]": {"test_system": "patient-derived GBM cell line 347", "assay": "Gliomasphere Cell Number Assay", "type": "cell-based", "conditions": "cell line 347, Recurrent, MGMT status −; 50% cell numbers vs DMSO control, Day 2 to Day 9; read-out: IC50 Cell Survival", "procedure": "as §1"}, "[10]": {"test_system": "patient-derived GBM cell line 378", "assay": "Gliomasphere Cell Number Assay", "type": "cell-based", "conditions": "cell line 378, Recurrent, MGMT status −; 50% cell numbers vs DMSO control, Day 2 to Day 9; read-out: IC50 Cell Survival", "procedure": "as §1"}, "[11]": {"test_system": "patient-derived GBM cell line 217", "assay": "Gliomasphere Formation Assay", "type": "cell-based", "conditions": "cell line 217, Primary; 50% sphere formation vs DMSO control", "procedure": "(§2) Primary patient-derived GBM tumor samples were dissociated and plated under culture conditions (i.e. DMEM/F12 medium supplemented with B27, 20 ng/mL bFGF, 50 ng/mL EGF, penicillin/streptomycin, L-glutamine and 5 ug/mL heparin) that produce gliomaspheres. Cells were plated at a density of 50 cells per well and allowed to acclimate overnight at 37° C. The Dihydropyrazino-Pyrazine Compounds were added to the cultures on Day 2 and replenished every 7 days. EGF and FGF were also replenished every 7 days. The cells were fixed with PFA/methanol when the smallest sphere was greater than 60 microns, typically 3-5 weeks. The cells were fixed with PFA/methanol and the next day assessed for cell number, using for example, SYTO-9 fluorescent DNA dye. Plates were read 48 h later with a laser scanning imager."}, "[12]": {"test_system": "patient-derived GBM cell line 245", "assay": "Gliomasphere Formation Assay", "type": "cell-based", "conditions": "cell line 245, Recurrent; 50% sphere formation vs DMSO control", "procedure": "as §2"}, "[13]": {"test_system": "patient-derived GBM cell line 296", "assay": "Gliomasphere Formation Assay", "type": "cell-based", "conditions": "cell line 296, Recurrent, MGMT status −; 50% sphere formation vs DMSO control", "procedure": "as §2"}, "[14]": {"test_system": "patient-derived GBM cell line 308", "assay": "Gliomasphere Formation Assay", "type": "cell-based", "conditions": "cell line 308, Recurrent, MGMT Unkn/Highly Expressed; 50% sphere formation vs DMSO control", "procedure": "as §2"}, "[15]": {"test_system": "patient-derived GBM cell line 350", "assay": "Gliomasphere Formation Assay", "type": "cell-based", "conditions": "cell line 350, Recurrent; 50% sphere formation vs DMSO control", "procedure": "as §2"}, "[16]": {"test_system": "HF2354 PDX (GBM neurosphere line HF2354)", "assay": "Patient derived xenograft (PDX) survival study", "type": "in vivo, nude mouse", "conditions": "HF2354 PDX in nude mice; 10 mg/kg oral gavage once a day, Monday through Friday", "procedure": "FIG. 2: Kaplan-Meier survival analysis for HF2354 PDX line (end of study). Treatment schedule for survival (Rx) and target hit (TH) are indicated.\nImmunocompromised mice (nude mouse NCRNU-M, TACONIC) were implanted with a GBM neurosphere line derived from fresh surgical specimens. The cell line was characterized as following:\nPatient derived xenograft (PDX) treatments started four weeks prior to when the first animal was expected to become symptomatic. […] Control animals were administered vehicle alone. Target hit cohorts were treated with one dose of each compound and sacrificed 2 and 24 h later (n=3/group). As necessary, fluids and supplemental food were administered to ameliorate weight loss."}, "[17]": {"test_system": "patient-derived GBM cell line 206", "assay": "Combination effect of Compound 1 and TMZ on cell survival (fractional product)", "type": "cell-based", "conditions": "168 h, 7 days, read-out: % Actual inh.", "text": "(§3) TMZ is an alkylating agent that delivers a methyl group to the purine bases of DNA (O^6-guanine; N^7-guanine and N^3-adenine). The cytotoxic lesion, O^6-methylguanine (O^6-MeG), caused by TMZ can be directly removed by methylguanine methyltransferase (MGMT) via direct repair and can also activate mechanisms of mismatch repair (MMR). Futile cycles of MMR lead to the formation of double-stranded DNA breaks and activation of the DNA-PK mediated mechanisms of double-stranded break repair.\n(§4) Tumorspheres grown under tumorsphere culture conditions were harvested, dissociated into single cells, and plated at 5,000 cells/well in 96-well plates. […] When the value of the column % actual inhibition divided by % inhibition calculated based on summation is >1=synergism, ˜1=summation, <1=antagonism."}, "[18]": {"test_system": "patient-derived GBM cell line 217", "assay": "Combination effect of Compound 1 and TMZ on cell survival (fractional product)", "type": "cell-based", "conditions": "168 h, 7 days, read-out: % Actual inh.", "text": "as §3, §4"}}, "data": [{"smiles": "CO[C@H]1CC[C@H](N2C(=O)CNc3ncc(-c4ccc(C(C)(C)O)nc4)nc32)CC1", "note": "[Compound 2, 7-(6-(2-hydroxypropan-2-yl)pyridin-3-yl)-1-((1r,4r)-4-methoxycyclohexyl)-3,4-dihydropyrazino-[2,3-b]pyrazin-2(1H)-one]", "values": [{"measurement": "IC50", "setting": "[1]", "result": 171, "unit": "nM"}, {"measurement": "IC50", "setting": "[2]", "result": 118, "unit": "nM"}, {"measurement": "IC50", "setting": "[3]", "result": 96.3, "unit": "nM"}, {"measurement": "IC50", "setting": "[4]", "result": 50.7, "unit": "nM"}, {"measurement": "IC50", "setting": "[5]", "result": 216, "unit": "nM"}, {"measurement": "IC50", "setting": "[6]", "result": 106, "unit": "nM"}, {"measurement": "IC50", "setting": "[7]", "result": 257, "unit": "nM"}, {"measurement": "IC50", "setting": "[8]", "result": 866, "unit": "nM"}, {"measurement": "IC50", "setting": "[9]", "result": 173, "unit": "nM"}, {"measurement": "IC50", "setting": "[10]", "result": 156, "unit": "nM"}, {"measurement": "IC50", "setting": "[11]", "result": 68.9, "unit": "nM"}, {"measurement": "IC50", "setting": "[12]", "result": 65.1, "unit": "nM"}, {"measurement": "IC50", "setting": "[13]", "result": 1700, "unit": "nM"}, {"measurement": "IC50", "setting": "[14]", "result": 76.7, "unit": "nM"}, {"measurement": "IC50", "setting": "[15]", "result": 244, "unit": "nM"}, {"measurement": "survival (Kaplan-Meier)", "setting": "[16]", "result": "No effect in survival"}]}, {"smiles": "Cn1nnc2c(C(N)=O)ncn2c1=O", "note": "[TMZ, Temozolomide]", "values": [{"measurement": "inhibition at 25 µM", "setting": "[17]; TMZ 25 μM alone", "result": 11.4, "unit": "%"}, {"measurement": "inhibition at 50 µM", "setting": "[17]; TMZ 50 μM alone", "result": 0, "unit": "%"}, {"measurement": "inhibition at 100 µM", "setting": "[17]; TMZ 100 μM alone", "result": 0, "unit": "%"}, {"measurement": "inhibition at 200 µM", "setting": "[17]; TMZ 200 μM alone", "result": 4.3, "unit": "%"}, {"measurement": "inhibition at 25 µM", "setting": "[18]; TMZ 25 μM alone", "result": 69, "unit": "%"}, {"measurement": "inhibition at 50 µM", "setting": "[18]; TMZ 50 μM alone", "result": 73, "unit": "%"}, {"measurement": "inhibition at 100 µM", "setting": "[18]; TMZ 100 μM alone", "result": 77, "unit": "%"}]}]}
